Assay results as given in patent publication EP4324461A1, “(E)-N-CINAMOYLAMINOALKANOLES WITH MELANOGENESIS INHIBITORY ACTIVITY” (UNIWERSYTET JAGIELLONSKI, priority 2022, dated 2024).

What was measured:
[1] = test system: Chinese hamster ovary cell line (CHO-K1); test: Genotoxicity in the micronucleus test in CHO-K1 cells; format: cell-based
Keratinocytes (HaCaT) [2] = test: Safety, LDH test in keratinocytes; format: cell-based; details: 48 hours, positive control Triton X-100
Experimental: (§1) In order to test the safety of the compounds, both normal human cells were used: keratinocytes (HaCaT), fibroblasts (BJ), primary melanocytes that occur in the skin, as well as human cancer cells: the hepatocarcinoma line HepG2 and the neuroblastoma line SH-SY5Y, which are considered a model for the assessment of hepatocytotoxicity and neurocytotoxicity. The concentrations of the tested compounds in the range of 250-100 µM were used in the studies. The cell lines used in the research were purchased from the American Type Culture Collection (ATCC) and were cultured in media recommended by the manufacturer with the addition of FBS and antibiotics in an incubator ensuring appropriate culture conditions, i.e. humidity, temperature and CO2 concentration. Cells were seeded into multiwell plates and incubated with the test compounds for 48 hours. After this time, MTT and LDH tests were performed to assess cell viability. The MTT test is based on the ability to transform the substrate: [3-(4,5-dimethyl-2-thiazolyl)-2,5-diphenyl-2H-tetrazolium bromide into a colored product only by living cells. The absorbance at 570 nm, which corresponds to the absorption maximum for the product, is directly proportional to cell viability. The LDH test is based on testing the activity of the enzyme lactate dehydrogenase in the culture medium, which is released from cells as a result of damage to the cell membrane, e.g. as a result of cell death. Triton X-100 was used as a positive control in the test. The determination is colorimetric, the substrate is transformed by the released enzyme into a colored product, an increase in absorbance indicates a larger amount of the released enzyme, and thus confirms greater damage to cell membranes. Tables 7 and 8 present the results obtained, which correspond to the viability of cells incubated with the compounds in relation to the viability of cells constituting a control sample, i.e. incubated with the solvent (DMSO) at the same concentration as in the case of the groups tested in the MTT test or in relation to the results obtained for the Triton X-100 positive control in the LDH test. They indicate that the compounds are safe at the concentrations tested. Table 7. Viability of tested normal human cell lines: keratinocytes (HaCaT), fibroblasts (BJ) and primary melanocytes after incubation with the tested compounds - determination in the MTT test (% of solvent control ± SD) and LDH (percentage of positive control - Triton X-100.

[3] = test system: human reconstructed epidermis model EpiDerm™; test: Extended skin irritation test in reconstructed human epidermis (EpiDerm), 2 and 7 days; format: cell-based; details: 1.0% in 50% PEG (10 µL)
Experimental: In order to perform extended skin irritation (safety) tests on the reconstructed human epidermis, the exposure time to the tested compounds was extended to 2 and 7 days in the human reconstructed epidermis model EpiDerm™ from MatTek. The epidermis was cultured according to the manufacturer's recommendations, using appropriate multi-well plates and culture media. Solutions of the tested compounds were applied to the epidermis using a positive displacement pipette and distributed using a sterile glass bulb headed Pasteur pipette. […] The epidermis was cultured in an incubator ensuring appropriate humidity, temperature (37 °C) and CO2 concentration (5%). The medium was replaced daily. After an appropriate incubation time, i.e. 2 days or 7 days, the epidermis was rinsed with sterile DPBS and incubated with MTT (Thiazolyl Blue Tetrazolium bromide) solution at 37 °C for 3 hours. After this time, a purple color of formazan was observed, correlated with tissue viability. […] Moreover, in the medium collected after the first 24 hours of EpiDerm epidermis culture, the level of interleukin 1α (Il-1α), which is a mediator of inflammation, was determined. Its level correlates with the unfavorable (irritating) effect of the tested substances on the epidermis. The level of IL-1α was determined using the Cayman Elisa test. […] Table 6. Viability results and results of interleukin 1α concentration measurement in the culture medium in the irritation test in the reconstructed human epidermis model EpiDerm.

[4] = test system: Chinese hamster ovary cell line (CHO-K1); test: Cytotoxicity in CHO-K1 cells (MTT) before the micronucleus test; format: cell-based; details: 24 hours
How it was run: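 CHO-K1 cells in F-12K with 10% FBS, 37 °C, 5% CO2, exposed to compounds for 24 hours. Viability by MTT, relative to DMSO vehicle at matching concentration; used to pick safe concentrations for the micronucleus test.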

neuroblastoma SH-SY5Y [5] = test: Safety, MTT test in SH-SY5Y; format: cell-based; details: 48 hours
Experimental: as §1

Keratinocytes (HaCaT) [6] = test: Safety, MTT test in keratinocytes; format: cell-based; details: 48 hours
Experimental: as §1

neuroblastoma SH-SY5Y [7] = test: Safety, LDH test in SH-SY5Y; format: cell-based; details: 48 hours, positive control Triton X-100
Experimental: as §1

Hepatocarcinoma HepG2 = test: Safety, LDH test in HepG2; format: cell-based; details: 48 hours, positive control Triton X-100
Experimental: as §1

S. typhimurium TA100 = test: Ames microplate test, TA100; format: cell-based, Salmonella typhimurium;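 further: reference level is the mean solvent-control yellow wells plus SD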
Experimental: Bacteria were grown overnight in growth medium.
Table 9. Ames microplate test results.

Primary melanocytes = test: Safety, LDH test in primary melanocytes; format: cell-based; details: 48 hours, positive control Triton X-100
Experimental: as §1

Structure (SMILES): O=C(/C=C/c1ccccc1)NCCCCCO [Compound A-133, (2E)-N-(5-hydroxypentyl)-3-phenylprop-2-enamide]
- DB (dicentric bridges in 1000 binucleate cells) ([1]; 100 µM): 3.8 ± 2.8
- MN (number of micronuclei in 1000 binucleate cells) ([1]; 100 µM): 7.8 ± 2.9
- NB (nuclear buds in 1000 binucleate cells) ([1]; 100 µM): 6.3 ± 3.7
- NDI (nuclear division index) ([1]; 100 µM): 1.64
- DB (dicentric bridges in 1000 binucleate cells) ([1]; 150 µM): 3.7 ± 2.3
- MN (number of micronuclei in 1000 binucleate cells) ([1]; 150 µM): 6.0 ± 1.9
- NB (nuclear buds in 1000 binucleate cells) ([1]; 150 µM): 4.5 ± 3.3
- NDI (nuclear division index) ([1]; 150 µM): 1.65
- DB (dicentric bridges in 1000 binucleate cells) ([1]; 200 µM): 3.3 ± 1.4
- MN (number of micronuclei in 1000 binucleate cells) ([1]; 200 µM): 6.8 ± 3.2
- NB (nuclear buds in 1000 binucleate cells) ([1]; 200 µM): 4.7 ± 1.8
- NDI (nuclear division index) ([1]; 200 µM): 1.66
- Keratinocytes (HaCaT) LDH (Keratinocytes (HaCaT) [2]; 100 µM): 3.23 percentage of positive control
- Keratinocytes (HaCaT) LDH (Keratinocytes (HaCaT) [2]; 150 µM): 3.08 percentage of positive control
- Keratinocytes (HaCaT) LDH (Keratinocytes (HaCaT) [2]; 200 µM): 6.38 percentage of positive control
- Keratinocytes (HaCaT) LDH (Keratinocytes (HaCaT) [2]; 250 µM): 19.58 percentage of positive control
- Il-1α in culture medium ([3]; medium after the first 24 hours): 34.99 ± 1.17 pg/mL
- Viability [% of control, mean±SD] ([3]; 2 days): 107.19±7.45 % of control
- Viability [% of control, mean±SD] ([3]; 7 days): 107.26±21.82 % of control
- % Viability [mean] ([4]; 100 µM): 94.6%
- % Viability [mean] ([4]; 150 µM): 97.2%
- % Viability [mean] ([4]; 200 µM): 89.1%
- Neuroblastoma SH-SYSY MTT (neuroblastoma SH-SY5Y [5]; 100 µM): 101.50±3.33 % of solvent control
- Neuroblastoma SH-SYSY MTT (neuroblastoma SH-SY5Y [5]; 150 µM): 100.75±3.01 % of solvent control
- Neuroblastoma SH-SYSY MTT (neuroblastoma SH-SY5Y [5]; 200 µM): 100.62±5.99 % of solvent control
- Neuroblastoma SH-SYSY MTT (neuroblastoma SH-SY5Y [5]; 250 µM): 100.41±1.87 % of solvent control
- Keratinocytes (HaCaT) MTT (Keratinocytes (HaCaT) [6]; 100 µM): 101.35±2.17 % of solvent control
- Keratinocytes (HaCaT) MTT (Keratinocytes (HaCaT) [6]; 150 µM): 101.40±2.08 % of solvent control
- Keratinocytes (HaCaT) MTT (Keratinocytes (HaCaT) [6]; 200 µM): 101.51±2.49 % of solvent control
- Keratinocytes (HaCaT) MTT (Keratinocytes (HaCaT) [6]; 250 µM): 95.53±2.80 % of solvent control
- Neuroblastoma SH-SYSY LDH (neuroblastoma SH-SY5Y [7]; 100 µM): 5.33 percentage of positive control
- Neuroblastoma SH-SYSY LDH (neuroblastoma SH-SY5Y [7]; 150 µM): 6.93 percentage of positive control
- Neuroblastoma SH-SYSY LDH (neuroblastoma SH-SY5Y [7]; 200 µM): 8.49 percentage of positive control
- Neuroblastoma SH-SYSY LDH (neuroblastoma SH-SY5Y [7]; 250 µM): 13.32 percentage of positive control
- Hepatocarcinoma HepG2 LDH (Hepatocarcinoma HepG2; 100 µM): 5.31 percentage of positive control
- Hepatocarcinoma HepG2 LDH (Hepatocarcinoma HepG2; 150 µM): 7.07 percentage of positive control
- Hepatocarcinoma HepG2 LDH (Hepatocarcinoma HepG2; 200 µM): 9.65 percentage of positive control
- Hepatocarcinoma HepG2 LDH (Hepatocarcinoma HepG2; 250 µM): 16.13 percentage of positive control
- Increase in the number of yellow wells compared to the reference level (S. typhimurium TA100; 0.5 mM, +S9): 0.83
- Increase in the number of yellow wells compared to the reference level (S. typhimurium TA100; 0.5 mM, without S9): 0.60
- Increase in the number of yellow wells compared to the reference level (S. typhimurium TA100; 1.0 mM, +S9): 0.78
- Increase in the number of yellow wells compared to the reference level (S. typhimurium TA100; 1.0 mM, without S9): 1.03
- Increase in the number of yellow wells compared to the reference level (S. typhimurium TA100; 2.0 mM, +S9): 0.61
- Increase in the number of yellow wells compared to the reference level (S. typhimurium TA100; 2.0 mM, without S9): 0.57
- Primary melanocytes LDH (Primary melanocytes; 100 µM): 4.68 percentage of positive control
- Primary melanocytes LDH (Primary melanocytes; 150 µM): 7.59 percentage of positive control
- Primary melanocytes LDH (Primary melanocytes; 200 µM): 16.71 percentage of positive control
- Primary melanocytes LDH (Primary melanocytes; 250 µM): 19.45 percentage of positive control
